The record followed here is PubChem BioAssay AID743477 (Broad Institute, 2014).

The structures appear in SMILES notation. The source made the active and inactive calls.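 Rule for the calls: active = fitted curve drops to -35% activity change at a dose no higher than twice the top valid tested dose; inconclusive = no clear call, values can overlap the other calls; inactive = the rest, including effects opposite to the expected drop.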

Tested on in the first test: not listed separately
Briefly: TC71 Ewing sarcoma cell viability loss – luminescence, retest at dose, dry powder, confirmation (AID 743477). As to conditions: TC71 Ewing sarcoma viability, CellTiter-Glo ATP, 72 h; at 1.6 µM (top of the series).
For the molecule `CCN(CCO)CCCOc1ccc2c(Nc3cc(CC(=O)Nc4cccc(F)c4)[nH]n3)ncnc2c1`, the activity change, negative = cytotoxicity was -35.4% (inactive).

The same test, now with this note: TC71 Ewing sarcoma viability, CellTiter-Glo ATP, 72 h; at 6 µM (top of the series).
Turning to `Clc1ccc(-c2cnc3ccc(-c4ccccc4)cn23)cc1`, the activity change, negative = cytotoxicity was -1.71% (inactive).

Staying with this test, now noted: TC71 Ewing sarcoma viability, CellTiter-Glo ATP, 72 h; at 12 µM (top of the series).
Take `COc1ccc(NC(=O)Nc2ccc3c(c2)C(=O)N([C@@H](C)CO)C[C@H](C)[C@H](CN(C)Cc2ccc4c(c2)OCO4)O3)cc1`: the activity change, negative = cytotoxicity is -31.5% (inactive).

Staying with this test, now noted: TC71 Ewing sarcoma viability, CellTiter-Glo ATP, 72 h; at 26 µM (top of the series).
Consider `CN(C(=O)CCCOc1ccc2[nH]c(=O)ccc2c1)C1CCCCC1`, for which the activity change, negative = cytotoxicity was -11% (inactive).

Take `CN1c2ccc(-c3ccc(C#N)cc3)cc2[C@H]2[C@H](CCN2S(=O)(=O)c2ccc(F)cc2)[C@H]1CO`: the activity change, negative = cytotoxicity was -15.7% (inactive).

Regarding `COC(=O)c1ccc(C2C(C#N)=C(N)Oc3cc(N)ccc32)cc1` (stereo unspecified), the activity change, negative = cytotoxicity is -13.5% (inactive).

Consider `C[C@]1(c2nc3c(C(N)=O)cccc3[nH]2)CCCN1`, for which the activity change, negative = cytotoxicity was -3.66% (inactive).

For the molecule `N#CC1=C(N)Oc2cc(N)ccc2C12C(=O)Nc1ccc(Br)cc12` (stereo unspecified), the activity change, negative = cytotoxicity is -13% (inactive).

For `CCC(C)(C)C(=O)O[C@H]1C[C@@H](C)C=C2C=C[C@H](C)[C@H](CC[C@@H]3C[C@@H](O)CC(=O)O3)[C@H]21`, the activity change, negative = cytotoxicity was -7.31% (inactive).

Turning to `COc1ccc(CNc2nc(N3CCC[C@H]3CO)ncc2C(=O)NCc2ncccn2)cc1Cl`, the activity change, negative = cytotoxicity is -6.81% (inactive).

Turning to `N#CC1=C(N)Oc2cc(N)ccc2C1c1ccc(Cl)cc1` (stereo unspecified), the activity change, negative = cytotoxicity is -10.5% (inactive).

On to `COc1ccc(C2CNC(=O)C2)cc1OC1CCCC1` (stereo unspecified), for which the activity change, negative = cytotoxicity was 1.67% (inactive).

Turning to `COc1ccc(-c2cc(NC(C)=O)c3ncc(-c4ccc(OC)c(OC)c4)n3c2)cc1`, the activity change, negative = cytotoxicity was -8.1% (inactive).

On to `COc1ccc(C2=Nn3c(nnc3-c3ccccc3)SC2)cc1OC`, for which the activity change, negative = cytotoxicity is -10.7% (inactive).

On to `Cc1ccc(C2C(C#N)=C(N)Oc3cc(N)ccc32)cc1` (stereo unspecified), for which the activity change, negative = cytotoxicity is -0.007% (inactive).

As to `COc1ccccc1C1C(C#N)=C(N)Oc2cc(N)ccc21` (stereo unspecified), the activity change, negative = cytotoxicity was -24.3% (inactive).

Regarding `COc1ccc(C2C(C#N)=C(N)Oc3cc(N)ccc32)cc1` (stereo unspecified), the activity change, negative = cytotoxicity was -6.57% (inactive).

As to `O=C(Nc1c(Cl)cncc1Cl)c1ccc(OC(F)F)c(OCC2CC2)c1`, the activity change, negative = cytotoxicity is -7.16% (inactive).

Staying with this test, now noted: TC71 Ewing sarcoma viability, CellTiter-Glo ATP, 72 h; at 50 µM (top of the series).
On to `O=P1(NCCCl)OCCCN1CCCl` (stereo unspecified), for which the activity change, negative = cytotoxicity was 3.6% (inactive).

A further test relates to TC71 Ewing sarcoma viability, CellTiter-Glo ATP, 72 h. The description is as above.
Conditions: not given
Consider `C[C@@]1(C(=O)Nc2ccc(F)nc2)CCCN1c1nc(Nc2cc(C3CC3)[nH]n2)c2cccn2n1`, for which the AC35 is 458 nM.

As to `Cc1cccc(C2C(C#N)=C(N)Oc3cc(N)ccc32)c1` (stereo unspecified), the AC35 was 689 nM.

For the molecule `COc1ccc(-c2cc(NC=O)c3ncc(-c4ccc(OC)c(OC)c4)n3c2)cc1`, the AC35 was 563 nM.

Turning to `COc1ccccc1S(=O)(=O)N1CC[C@@H]2[C@@H](CO)Nc3ccc(-c4ccc(C#N)cc4)cc3[C@@H]21`, the AC35 was 10500 nM.

As for `COc1cccc(C2C(C#N)=C(N)Oc3cc(N)ccc32)c1` (stereo unspecified), the AC35 was 571 nM.

`CN1CCN(CCOc2cc(OC3CCOCC3)c3c(Nc4c(Cl)ccc5c4OCO5)ncnc3c2)CC1`: the AC35 was 21200 nM.

Take `COc1cccc2c1C(=O)c1c(O)c3c(c(O)c1C2=O)C[C@@](O)(C(=O)CO)C[C@@H]3O[C@H]1C[C@H](N)[C@H](O)[C@H](C)O1`: the AC35 was less than 50 nM.

`COc1ccc(S(=O)(=O)N(C(C)=O)c2ccc(OC(C)=O)c3ccccc23)cc1[N+](=O)[O-]`: the AC35 is 4460 nM.

In the case of `Nc1ccn([C@@H]2O[C@H](CO)[C@H](O)C2O)c(=O)n1` (stereo partly specified), the AC35 is 585 nM.

With `N#Cc1ccc(-c2ccc3c(c2)[C@H]2[C@H](CCN2S(=O)(=O)c2cccc(F)c2)[C@@H](CO)N3)cc1`, the AC35 was 7800 nM.

For `N#CC1=C(N)Oc2cc(N)ccc2C1c1cccc(F)c1` (stereo unspecified), the AC35 is 1770 nM.

Turning to `COc1ccc(S(=O)(=O)N2CC[C@@H]3[C@@H](CO)N(C)c4ccc(-c5ccc(F)cc5)cc4[C@@H]32)cc1`, the AC35 is 3410 nM.

On to `Cc1c([C@H](C(Cl)Cl)[C@H](O)[C@H]2C[C@H](C)C(=O)O2)ccc2c1C(=O)[C@H]1[C@H]2C[C@@H](Br)[C@@]23O[C@@H](CO[C@H]2O)C[C@]13C`, for which the AC35 is less than 50 nM.

As for `COc1ccc(S(=O)(=O)N2CC[C@@H]3[C@@H](CO)Nc4ccc(-c5cccc(C#N)c5)cc4[C@@H]32)cc1`, the AC35 is 4140 nM.

For `COc1cccc(S(=O)(=O)N2CC[C@@H]3[C@@H](CO)Nc4ccc(-c5ccc(C#N)cc5)cc4[C@@H]32)c1`, the AC35 is 21000 nM.

Consider `COc1ccccc1-c1nnc2n1N=C(c1ccc(O)c(O)c1)CS2`, for which the AC35 is 1320 nM.

Take `N#CC1=C(N)Oc2cc(N)ccc2C1c1cccc(Br)c1` (stereo unspecified): the AC35 is 183 nM.

Take `N#CC1=C(N)Oc2cc(N)ccc2C1c1ccccc1` (stereo unspecified): the AC35 is 12800 nM.

On to `COc1ccc(-c2ccc3c(c2)[C@H]2[C@H](CCN2S(=O)(=O)c2ccc(OC)cc2)[C@@H](CO)N3C)cc1`, for which the AC35 was 3190 nM.

`Cn1cc(-c2ccncc2)c(-c2ccc(OCc3ccc4ccccc4n3)cc2)n1`: the AC35 is 20000 nM.

On to `COc1cc([C@@H]2c3cc4c(cc3[C@@H](O[C@@H]3O[C@@H]5CO[C@@H](C)O[C@H]5[C@H](O)[C@H]3O)[C@H]3COC(=O)[C@H]23)OCO4)cc(OC)c1O`, for which the AC35 was 577 nM.

`N#CC1=C(N)Oc2cc(N)ccc2C1c1ccc2ccccc2c1` (stereo unspecified): the AC35 was 11900 nM.

`CCc1c2c(nc3ccc(O)cc13)-c1cc3c(c(=O)n1C2)COC(=O)C3(O)CC` (stereo unspecified): the AC35 was 1.99 nM.

`COc1ccc(C2=Nn3c(nnc3-c3ccccc3Cl)SC2)cc1OC`: the AC35 is 427 nM.

Take `N#CC1=C(N)Oc2cc(N)ccc2C1c1ccccc1Cl` (stereo unspecified): the AC35 was 10600 nM.

On to `N#CC1=C(N)Oc2cc(O)ccc2C1c1cccc(Br)c1` (stereo unspecified), for which the AC35 was 2720 nM.

Take `COc1ccc(C2=Nn3c(nnc3-c3ccccc3OC)SC2)cc1OC`: the AC35 is 61.3 nM.
